In BindingDB's records for doi:10.1016/0960-894X(95)00351-S (1995):

Assay: Inhibition of platelet aggregation using human platelet rich plasma (hPRP) assay (200microL, 2-3 x 10e 8 platelets/mL, n=1)

Row | Structure (SMILES) | IC50 [nM]
1 | CC(C)[C@H]1NC(=O)Cc2csc(n2)NC(=O)[C@H](CC(=O)O)NC(=O)CNC(=O)[C@H](CCCN=C(N)N)N(C)C1=O [[(4S,10S,13S)-10-(3-Guanidino-propyl)-13-isopropyl-11-methyl-3,6,9,12,15-pentaoxo-19-thia-2,5,8,11,14,20-hexaaza-bicyclo[15.2.1]icosa-1(20),17-dien-4-yl]-acetic acid] | 400
2 | CC(C)[C@H]1NC(=O)C2=CC=C(CNC(=O)[C@H](CC(=O)O)NC(=O)CNC(=O)[C@H](CCCN=C(N)N)N(C)C1=O)S2 [[(5S,11S,14S)-11-(3-Guanidino-propyl)-14-isopropyl-12-methyl-4,7,10,13,16-pentaoxo-20-thia-3,6,9,12,15-pentaaza-bicyclo[15.2.1]icosa-1(19),17-dien-5-yl]-acetic acid] | 100
3 | CC(C)[C@H]1NC(=O)c2cccc(n2)CNC(=O)[C@H](CC(=O)O)NC(=O)CNC(=O)[C@H](CCCN=C(N)N)N(C)C1=O [[(5S,11S,14S)-11-(3-Guanidino-propyl)-14-isopropyl-12-methyl-4,7,10,13,16-pentaoxo-3,6,9,12,15,21-hexaaza-bicyclo[15.3.1]henicosa-1(21),17,19-trien-5-yl]-acetic acid] | 2000
4 | CC(C)[C@H]1NC(=O)c2ccc([nH]2)CNC(=O)[C@H](CC(=O)O)NC(=O)CNC(=O)[C@H](CCCNC(=N)N)N(C)C1=O [[(5S,11S,14S)-11-(3-Guanidino-propyl)-14-isopropyl-12-methyl-4,7,10,13,16-pentaoxo-3,6,9,12,15,20-hexaaza-bicyclo[15.2.1]icosa-1(19),17-dien-5-yl]-acetic acid] | 100
5 | CC(C)[C@H]1NC(=O)C/C=C\CNC(=O)[C@H](CC(=O)O)NC(=O)CNC(=O)[C@H](CCCN=C(N)N)N(C)C1=O [[(Z)-(3R,9R,12R)-9-(3-Guanidino-propyl)-12-isopropyl-10-methyl-2,5,8,11,14-pentaoxo-1,4,7,10,13pentaaza-cyclooctadec-16-en-3-yl]-acetic acid] | 200
6 | CC(C)[C@H]1NC(=O)C2=CC=C(CNC(=O)[C@H](CC(=O)O)NC(=O)CNC(=O)[C@H](CCCNC(=N)N)N(C)C1=O)O2 [[(5S,11S,14S)-11-(3-Guanidino-propyl)-14-isopropyl-12-methyl-4,7,10,13,16-pentaoxo-20-oxa-3,6,9,12,15-pentaaza-bicyclo[15.2.1]icosa-1(19),17-dien-5-yl]-acetic acid] | 50
7 | CC(C)[C@H]1NC(=O)/C=C\CCNC(=O)[C@H](CC(=O)O)NC(=O)CNC(=O)[C@H](CCCNC(=N)N)N(C)C1=O [[(Z)-(3R,9R,12R)-9-(3-Guanidino-propyl)-12-isopropyl-10-methyl-2,5,8,11,14-pentaoxo-1,4,7,10,13pentaaza-cyclooctadec-15-en-3-yl]-acetic acid] | 200
8 | CC(C)[C@H]1NC(=O)c2cccc(c2F)CNC(=O)[C@H](CC(=O)O)NC(=O)CNC(=O)[C@H](CCCN=C(N)N)N(C)C1=O [[(5S,11S,14S)-21-Fluoro-11-(3-guanidino-propyl)-14-isopropyl-12-methyl-4,7,10,13,16-pentaoxo-3,6,9,12,15-pentaaza-bicyclo[15.3.1]henicosa-1(20),17(21),18-trien-5-yl]-acetic acid] | 20
9 | CC(C)[C@H]1NC(=O)c2cccc(c2)CNC(=O)[C@H](CC(=O)O)NC(=O)CNC(=O)[C@H](CCCNC(=N)N)N(C)C1=O [DMP-757] | 20
